From US10100027B2, “Benzofuran analogue as NS4B inhibitor” (priority 2014, dated 2018)

tested on: HCV genotype 1a (HCV-1a) replicon cells; assay: HCV genotype 1a replicon cell assay (luciferase, Bright-Glo); format: cell-based; settings: Hepatitis C virus, 72 h, HCV-1a (H77) replicon cells, 3 days
Procedure: (§1) The EC50 and CC50 values of anti-HCV compounds were determined by HCV genotype 1a (HCV-1a) and 1b (HCV-1b) stable transfected replication (replicon) cells. The source of genotype 1a replicon is H77 clones containing K1691R, K2040R and S2204I adaptive mutations. The source of genotype 1b replicon is Con1 clones containing E1202G, T1280I and K1846T adaptive mutations.
(§2) HCV 1a (HCV-1a) and 1b (HCV-1b) gene subtype replicon system contains the related HCV gene subtype non-structural protein gene, G418 resistance gene NEO and luciferase gene, which results in that HCV related protein and luciferase can be stably expressed in cells. By detecting the level of expression of luciferase gene, the level of HCV replication can be determined. Therefore, the system is used as a model for screening the activity of anti-HCV compound in vitro.
(§3) The compound powder was dissolved in 100% DMSO. Then the compound was diluted 5 times with 6 points, and added into the cell plate with Echo liquid handler. Ensure the final concentration of DMSO was 0.5%. Each compound was tested in duplicate.
(§4) 4) Diluting cells to 8×10^4 cells/mL with the culture medium, adding the diluted cells into the compound-containing 96-well plate (Greiner, Cat. #655090) (100 μL/well, 8000 cells/well) with automatic liquid separator (Thermo Scientific). Then place into a 37° C., 5% CO2 incubator for 3 days. Cell control well: no compound, only containing 0.5% DMSO.
(§5) 6) Then adding luciferase substrate Bright-Glo, after incubation for 5 minutes, detecting the luciferase activity by microplate reader Envison (wavelength>700 nm); analyzing the anti-HCV inhibitory activity of the compounds according to luminescence data, which was used to calculate EC50 values.
(§6) The EC50 or CC50 values were obtained by nonlinear fitting regression on inhibition percentage (inh %) data with GraphPad Prism software.

SMILES | EC50 [nM]
C[C@H]1COCCN1C(=O)C1CCN(C(=O)c2oc3c(C(F)(F)F)cc(C4CC4)cc3c2Cl)CC1 [YD_0311] | 100 to 1000
CCOC(=O)NN1CCN(C(=O)c2oc3c(C(F)(F)F)cc(C4CC4)cc3c2Cl)CC1 [YD_0312] | 100 to 1000
O=C(c1oc2c(C(F)(F)F)cc(C3CC3)cc2c1Cl)N1CCC(C(=O)N2CCC2)CC1 [YD_0313] | 0.1 to 100
CN(C)C(=O)C1(C)CCN(C(=O)c2oc3c(C(F)(F)F)cc(C4CC4)cc3c2Cl)CC1 [YD_0317] | 100 to 1000
CC1(C(=O)N2CC(O)C2)CCN(C(=O)c2oc3c(C(F)(F)F)cc(C4CC4)cc3c2Cl)CC1 [YD_0318] | 100 to 1000
CC1CN(C)CCN1C(=O)C1CCN(C(=O)c2oc3c(C(F)(F)F)cc(C4CC4)cc3c2Cl)CC1 (stereo not drawn) [YD_0321] | 100 to 1000
CC1CNCCN1C(=O)C1CCN(C(=O)c2oc3c(C(F)(F)F)cc(C4CC4)cc3c2Cl)CC1 (stereo not drawn) [YD_0322] | 100 to 1000
CC1CN(C(=O)C2CCN(C(=O)c3oc4c(C(F)(F)F)cc(C5CC5)cc4c3Cl)CC2)CCO1 (stereo not drawn) [YD_0323] | 100 to 1000
O=C(c1oc2c(C(F)(F)F)cc(C3CC3)cc2c1Cl)N1CCC(C(=O)N2CC3CC3C2)CC1 (stereo not drawn) [YD_0324] | 0.1 to 100
CC1CN(C(=O)C2CCN(C(=O)c3oc4c(C(F)(F)F)cc(C5CC5)cc4c3Cl)CC2)CCN1C (stereo not drawn) [YD_0325] | 100 to 1000
CC1CN(C(=O)C2CCN(C(=O)c3oc4c(C(F)(F)F)cc(C5CC5)cc4c3Cl)CC2)CCN1 (stereo not drawn) [YD_0326] | 100 to 1000
O=C(Nc1ccc(Cl)cn1)C1CCN(C(=O)c2oc3c(C(F)(F)F)cc(C4CC4)cc3c2Cl)CC1 [YD_0327] | 100 to 1000
CN(C(=O)C1CCN(C(=O)c2oc3c(C(F)(F)F)cc(C4CC4)cc3c2Cl)CC1)c1ccc(F)cn1 [YD_0329] | 100 to 1000
O=C(c1oc2c(C(F)(F)F)cc(C3CC3)cc2c1Cl)N1CCC(=O)N(C2CCCC2)CC1 [YD_0330] | 100 to 1000
O=C1CN(N2CCN(C(=O)c3oc4c(C(F)(F)F)cc(C5CC5)cc4c3Cl)CC2)C(=O)N1 [YD_0331] | 0.1 to 100

tested on: not listed separately; assay: Cytotoxicity in HCV replicon cells (Cell Titer-fluor); format: cell-based; settings: not given
Procedure: as §1, §3, §4
5) Adding fluorescence substrate Cell Titer-fluor to the cell well, after incubation for 30 minutes, detecting the signal by microplate reader Envison (Ex at 405 nm and read at 515 nm). The effect of the compounds on the cytotoxicity of HCV replicon cells was analyzed according to the fluorescence data, which was used to calculate the CC50 values.
as §6

SMILES | CC50 at 3 days [nM]
O=C(c1nc2c(C(F)(F)F)cc(C3CC3)cn2c1Cl)N1CCN([C@H]2C[C@H](O)C2)C(=O)N1 [YA_0359] | > 3000
O=C1NN(C(=O)c2nc3c(C(F)(F)F)cc(C4CC4)cn3c2Cl)CCN1CC(F)(F)F [YA_0361] | > 3000
O=C(c1nc2c(C(F)(F)F)cc(C3CC3)cn2c1Cl)N1CCN(C2CC2)C(=O)N1 [YA_0362] | > 3000
Cc1nnc(C23CCC(NC(=O)c4cc5cc(C(C)C)cc(C(F)(F)F)c5o4)(CC2)CC3)o1 [YD_0019] | > 3000
CC(C)c1cc(C(F)(F)F)c2oc(C(=O)N3CCN(C4CCC(O)CC4)C(=O)C3)cc2c1 (stereo not drawn) [YD_0044] | > 3000
Cc1nnc(C23CCC(NC(=O)c4oc5c(C(F)(F)F)cc(C6CC6)cc5c4Cl)(CC2)CC3)o1 [YD_0056] | > 3000
Cc1nnc(C23CCC(NC(=O)c4oc5c(C(F)(F)F)cc(C6CC6)cc5c4Br)(CC2)CC3)o1 [YD_0057] | > 3000
Cc1nnc(C23CCC(NC(=O)c4oc5c(C(F)(F)F)cc(C6CC6)cc5c4C)(CC2)CC3)o1 [YD_0058] | > 3000
CCCc1cc(C(F)(F)F)c2oc(C(=O)NC34CCC(c5nnc(C)o5)(CC3)CC4)c(Cl)c2c1 [YD_0060] | > 3000
C[C@H]1COCCN1C(=O)C1CCN(C(=O)c2oc3c(C(F)(F)F)cc(C4CC4)cc3c2Cl)CC1 [YD_0311] | > 3000
CCOC(=O)NN1CCN(C(=O)c2oc3c(C(F)(F)F)cc(C4CC4)cc3c2Cl)CC1 [YD_0312] | > 3000
O=C(c1oc2c(C(F)(F)F)cc(C3CC3)cc2c1Cl)N1CCC(C(=O)N2CCC2)CC1 [YD_0313] | > 3000
CN(C)C(=O)C1(C)CCN(C(=O)c2oc3c(C(F)(F)F)cc(C4CC4)cc3c2Cl)CC1 [YD_0317] | > 3000
CC1(C(=O)N2CC(O)C2)CCN(C(=O)c2oc3c(C(F)(F)F)cc(C4CC4)cc3c2Cl)CC1 [YD_0318] | > 3000
CC1CN(C)CCN1C(=O)C1CCN(C(=O)c2oc3c(C(F)(F)F)cc(C4CC4)cc3c2Cl)CC1 (stereo not drawn) [YD_0321] | > 3000
CC1CNCCN1C(=O)C1CCN(C(=O)c2oc3c(C(F)(F)F)cc(C4CC4)cc3c2Cl)CC1 (stereo not drawn) [YD_0322] | > 3000
CC1CN(C(=O)C2CCN(C(=O)c3oc4c(C(F)(F)F)cc(C5CC5)cc4c3Cl)CC2)CCO1 (stereo not drawn) [YD_0323] | > 3000
O=C(c1oc2c(C(F)(F)F)cc(C3CC3)cc2c1Cl)N1CCC(C(=O)N2CC3CC3C2)CC1 (stereo not drawn) [YD_0324] | > 3000
CC1CN(C(=O)C2CCN(C(=O)c3oc4c(C(F)(F)F)cc(C5CC5)cc4c3Cl)CC2)CCN1C (stereo not drawn) [YD_0325] | > 3000
CC1CN(C(=O)C2CCN(C(=O)c3oc4c(C(F)(F)F)cc(C5CC5)cc4c3Cl)CC2)CCN1 (stereo not drawn) [YD_0326] | > 3000
O=C(Nc1ccc(Cl)cn1)C1CCN(C(=O)c2oc3c(C(F)(F)F)cc(C4CC4)cc3c2Cl)CC1 [YD_0327] | > 3000
CN(C(=O)C1CCN(C(=O)c2oc3c(C(F)(F)F)cc(C4CC4)cc3c2Cl)CC1)c1ccc(F)cn1 [YD_0329] | > 3000
O=C(c1oc2c(C(F)(F)F)cc(C3CC3)cc2c1Cl)N1CCC(=O)N(C2CCCC2)CC1 [YD_0330] | > 3000
O=C1CN(N2CCN(C(=O)c3oc4c(C(F)(F)F)cc(C5CC5)cc4c3Cl)CC2)C(=O)N1 [YD_0331] | > 3000

tested on: HCV genotype 1b (HCV-1b) replicon cells; assay: HCV genotype 1b replicon cell assay (luciferase, Bright-Glo); format: cell-based; settings: Hepatitis C virus, 72 h, HCV-1b (Con1) replicon cells, 3 days
Procedure: as §1, §2, §3, §4, §5, §6

SMILES | EC50 [nM]
Cc1nnc(C23CCC(NC(=O)c4cc5cc(C(C)C)cc(C(F)(F)F)c5o4)(CC2)CC3)o1 [YD_0019] | 100 to 1000
CC(C)c1cc(C(F)(F)F)c2oc(C(=O)N3CCN(C4CCC(O)CC4)C(=O)C3)cc2c1 (stereo not drawn) [YD_0044] | 0.1 to 100
Cc1nnc(C23CCC(NC(=O)c4oc5c(C(F)(F)F)cc(C6CC6)cc5c4Cl)(CC2)CC3)o1 [YD_0056] | 1000 to 5000
Cc1nnc(C23CCC(NC(=O)c4oc5c(C(F)(F)F)cc(C6CC6)cc5c4Br)(CC2)CC3)o1 [YD_0057] | 100 to 1000
Cc1nnc(C23CCC(NC(=O)c4oc5c(C(F)(F)F)cc(C6CC6)cc5c4C)(CC2)CC3)o1 [YD_0058] | 100 to 1000
CCCc1cc(C(F)(F)F)c2oc(C(=O)NC34CCC(c5nnc(C)o5)(CC3)CC4)c(Cl)c2c1 [YD_0060] | 100 to 1000
C[C@H]1COCCN1C(=O)C1CCN(C(=O)c2oc3c(C(F)(F)F)cc(C4CC4)cc3c2Cl)CC1 [YD_0311] | 100 to 1000
CCOC(=O)NN1CCN(C(=O)c2oc3c(C(F)(F)F)cc(C4CC4)cc3c2Cl)CC1 [YD_0312] | 100 to 1000
O=C(c1oc2c(C(F)(F)F)cc(C3CC3)cc2c1Cl)N1CCC(C(=O)N2CCC2)CC1 [YD_0313] | 0.1 to 100
CN(C)C(=O)C1(C)CCN(C(=O)c2oc3c(C(F)(F)F)cc(C4CC4)cc3c2Cl)CC1 [YD_0317] | 1000 to 5000
CC1(C(=O)N2CC(O)C2)CCN(C(=O)c2oc3c(C(F)(F)F)cc(C4CC4)cc3c2Cl)CC1 [YD_0318] | 1000 to 5000
CC1CN(C)CCN1C(=O)C1CCN(C(=O)c2oc3c(C(F)(F)F)cc(C4CC4)cc3c2Cl)CC1 (stereo not drawn) [YD_0321] | 1000 to 5000
CC1CNCCN1C(=O)C1CCN(C(=O)c2oc3c(C(F)(F)F)cc(C4CC4)cc3c2Cl)CC1 (stereo not drawn) [YD_0322] | 100 to 1000
CC1CN(C(=O)C2CCN(C(=O)c3oc4c(C(F)(F)F)cc(C5CC5)cc4c3Cl)CC2)CCO1 (stereo not drawn) [YD_0323] | 100 to 1000
O=C(c1oc2c(C(F)(F)F)cc(C3CC3)cc2c1Cl)N1CCC(C(=O)N2CC3CC3C2)CC1 (stereo not drawn) [YD_0324] | 0.1 to 100
CC1CN(C(=O)C2CCN(C(=O)c3oc4c(C(F)(F)F)cc(C5CC5)cc4c3Cl)CC2)CCN1C (stereo not drawn) [YD_0325] | 1000 to 5000
CC1CN(C(=O)C2CCN(C(=O)c3oc4c(C(F)(F)F)cc(C5CC5)cc4c3Cl)CC2)CCN1 (stereo not drawn) [YD_0326] | 1000 to 5000
O=C(Nc1ccc(Cl)cn1)C1CCN(C(=O)c2oc3c(C(F)(F)F)cc(C4CC4)cc3c2Cl)CC1 [YD_0327] | 1000 to 5000
CN(C(=O)C1CCN(C(=O)c2oc3c(C(F)(F)F)cc(C4CC4)cc3c2Cl)CC1)c1ccc(F)cn1 [YD_0329] | 100 to 1000
O=C(c1oc2c(C(F)(F)F)cc(C3CC3)cc2c1Cl)N1CCC(=O)N(C2CCCC2)CC1 [YD_0330] | 0.1 to 100
O=C1CN(N2CCN(C(=O)c3oc4c(C(F)(F)F)cc(C5CC5)cc4c3Cl)CC2)C(=O)N1 [YD_0331] | 0.1 to 100
